According to patent US9518051B2, “Pyrroloquinoline alkaloids as antimalarial agents and process for the preparation thereof” (Council of Scientific & Industrial Research, priority 2012, dated 2016):

Key:
[1] = system: Plasmodium falciparum 3D7 (chloroquine sensitive strain); assay: Anti malarial activity in vitro on Plasmodium falciparum at erythrocyte stage; format: cell-based; conditions: compound in crude form
Method: In a preferred embodiment, the compound NCLite-M1 was tested for anti-malarial activity against a known parasite Plasmodium falciprum 3D7 was used, which is chloroquine sensitive strain and the results are tabulated herein.
This study was performed in vitro on Plasmodium falciparum at erythrocyte stage. The test protocol for testing antimalarial activity is from R. E. Desjardins, C. J. Canfield, J. D. Haynes and J. D. Chulay Antimicrob. Agents Chemother. 1979, 16, 710.
A known parasite 3D7 was used, which is Chloroquine sensitive strain. 2 mg of the compound NCLite-M1 which has a molecular weight of 326.35, was dissolved in 10 mL of EtOH and used as a stock. […] Further studies using highly pure compound and its soluble salts are planned.

SMILES | melting point [°C] | further results
O=c1c2ccccc2ncn1Cc1nc2ccccc2c2cc[nH]c12 [NCLite-M1, 3-((3H-pyrrolo[2,3-c]quinolin-4-yl)methyl)quinazolin-4(3H)-one] | – | lowest concentration at which the compound is active ([1]; P. falciparum 3D7): 2 µmol; inhibition at 25 µM ([1]; Plasmodium falciparum, concentration 25 μM, P. falciparum 3D7, erythrocyte stage, read-out: % inhibition by NCLite-M1): 19.5%; inhibition at 50 µM ([1]; Plasmodium falciparum, concentration 50 μM, P. falciparum 3D7, erythrocyte stage, read-out: % inhibition by NCLite-M1): 77.2%; inhibition at 75 µM ([1]; Plasmodium falciparum, concentration 75 μM, P. falciparum 3D7, erythrocyte stage, read-out: % inhibition by NCLite-M1): 89.4%; % inhibition by NCLite-M1 ([1]; concentration 2-5 μM, P. falciparum 3D7, erythrocyte stage): 17.6%
Nc1ncnc2c1ncn2Cc1nc2ccccc2c2cc[nH]c12 [Aplidiopsamine A] | 229 to 231 | –
Cc1nc2cc(Cl)ccc2c2ccn(S(=O)(=O)c3ccccc3)c12 [Table 2, entry 2, 7-chloro-4-methyl-3-(phenylsulfonyl)-3H-pyrrolo[2,3-c]quinoline] | 178 to 180 | –

Further lines, with some results ahead:

melting point [°C] | SMILES | further results
194 to 196 | N#Cc1ccc2[nH]c(-c3ccccc3)cc2c1 [Table 2, entry 6, 2-phenyl-1H-indole-5-carbonitrile] | –
233 to 235 | N#Cc1ccc2nc(-c3ccccc3)c3ccccc3c2c1 [Table 2, entry 5, 6-phenylphenanthridine-2-carbonitrile] | –
143 to 145 | Cc1nc2ccccc2c2ccn(S(=O)(=O)c3ccccc3)c12 [compound 3, 4-Methyl-3-(phenylsulfonyl)-3H-pyrrolo[2,3-c]quinoline] | –
